Test results reported in patent US9757372B2, “Toll-like receptor 4 antagonists and use in autoimmune liver diseases” (TAIWANJ PHARMACEUTICALS CO., LTD., priority 2015, dated 2017).

Experiments:
Con A-induced hepatitis = test: Concanavalin A hepatitis in mouse (murine model of AIH); format: in vivo
[1] = test system: liver NK cells, NKT cells and mononuclear cells; test: Murine model of primary biliary cirrhosis (2-OA-BSA and α-GalCer immunized C57BL/6 mice); format: in vivo, mouse; conditions: 50 mg/kg bid oral; for effect on elevated liver NK cells: week 4 through week 10 (FIG. 3); for effect on elevated liver NKT cells: week 4 through week 10 (FIG. 4); for effect on elevated liver mononuclear cells: week 4 through week 10 (not shown)
Description: C57BL/6 mice of 8-10 weeks old were immunized with 2-OA-BSA and α-GalCer at week 0, followed by booster injections at 2, 4, and 8. […] Each value represents individual animals. Some animals were lost due to lunging.

TLR4 [2] = biological target: T1, TLR4 (Homo sapiens, UniProt O00206+Q9Y6Y9); conditions: Hutchinson et al., Eur J Neurosci. 28:20-29, 2008; cited from earlier work
Target sequence in this assay (O00206 24-839, species assumed): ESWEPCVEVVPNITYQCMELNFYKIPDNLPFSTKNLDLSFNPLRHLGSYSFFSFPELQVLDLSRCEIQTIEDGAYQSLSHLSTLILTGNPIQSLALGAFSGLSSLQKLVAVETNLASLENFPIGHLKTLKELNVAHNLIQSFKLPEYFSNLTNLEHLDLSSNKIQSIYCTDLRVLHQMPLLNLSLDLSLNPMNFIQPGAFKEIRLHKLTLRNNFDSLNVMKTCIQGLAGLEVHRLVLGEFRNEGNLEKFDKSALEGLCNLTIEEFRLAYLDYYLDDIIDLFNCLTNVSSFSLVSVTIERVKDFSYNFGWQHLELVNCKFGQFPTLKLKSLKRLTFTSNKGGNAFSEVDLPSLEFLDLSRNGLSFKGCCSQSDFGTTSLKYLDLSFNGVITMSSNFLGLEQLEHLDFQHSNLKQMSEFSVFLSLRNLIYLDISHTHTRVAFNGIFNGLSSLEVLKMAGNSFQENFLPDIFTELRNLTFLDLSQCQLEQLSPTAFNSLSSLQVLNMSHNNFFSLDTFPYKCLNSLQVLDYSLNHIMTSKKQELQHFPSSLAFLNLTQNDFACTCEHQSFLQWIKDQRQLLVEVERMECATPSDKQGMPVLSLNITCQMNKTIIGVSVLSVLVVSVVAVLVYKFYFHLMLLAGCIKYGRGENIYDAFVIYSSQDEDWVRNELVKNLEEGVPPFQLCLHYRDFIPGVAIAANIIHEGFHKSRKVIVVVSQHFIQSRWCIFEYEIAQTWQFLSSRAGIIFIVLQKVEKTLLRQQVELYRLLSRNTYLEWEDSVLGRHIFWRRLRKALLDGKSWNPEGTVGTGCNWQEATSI
Target sequence in this assay (Q9Y6Y9 17-160 limits assumed, species assumed): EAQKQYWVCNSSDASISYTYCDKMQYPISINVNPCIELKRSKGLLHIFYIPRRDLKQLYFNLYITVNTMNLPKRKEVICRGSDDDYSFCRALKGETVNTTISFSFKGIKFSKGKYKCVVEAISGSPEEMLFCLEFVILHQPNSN

TLR4 [3] = biological target: T1, TLR4; test: Inhibition of TLR4 activation: NF-κB-inducible SEAP reporter, antagonist assay with LPS; format: cell-based; design: expressed in transfected cells; host or cells: HEK293
Procedure: The secreted alkaline phosphatase reporter is under the control of a promoter inducible by the transcription factor NF-κB. TLR stimulation in the screening is tested by assessing NF-κB activation in the HEK293 cells expressing a given TLR. This reporter gene allows the monitoring of signaling through the TLR, based on the activation of NF-κB. In a 96-well plate (200μL total volume) containing the appropriate cells (25,000-50,000 cells/well), we add 20μL of your sample or the positive control ligands to the wells. For the antagonist assay, the samples are incubated with the cells for 30 minutes prior to adding the appropriate stimulating ligand. The media we add to the wells is designed for the detection of NF-κB induced SEAP expression. After a 16-20 hr incubation we read the OD at 650 nm on a Beckman Coulter AD 340C Absorbance Detector.
Target sequence in this assay (O00206 24-839): as the sequence (O00206 24-839, species assumed) above
Target sequence in this assay (Q9Y6Y9 17-160 limits assumed): as the sequence (Q9Y6Y9 17-160 limits assumed, species assumed) above

[4] = 20 mg/kg, 9 hours post Con A challenge, P<0.05 vs vehicle
[5] = 50 mg/kg PO, result in words (FIG. 2)

SMILES | reduction of IL-5 in the liver (Con A-induced hepatitis; [4]) [%] | reduction of IL-6 in the liver (Con A-induced hepatitis; [4]) [%] | effect on elevated liver NK cells [1] | effect on elevated liver NKT cells [1] | effect on elevated liver mononuclear cells [1] | reported TLR4 antagonist (TLR4 [2]) | inhibition of Con A-induced elevation of ALT (Con A-induced hepatitis; [5]) | inhibition of Con A-induced elevation of AST (Con A-induced hepatitis; [5]) | reduction of IL-5 in the serum (Con A-induced hepatitis; 50 mg/kg, 6 hours post Con A challenge) [%] | reduction of IL-5 in the liver (Con A-induced hepatitis; 50 mg/kg, 24 hours post Con A challenge) [%] | % of Inhibition of NF-κB (TLR4 [3]; HEK293 cells expressing TLR4, LPS 50 pg/mL, compound 10 μM) [%] | inhibition of LPS-induced TLR4 activation (TLR4 [3]; at various concentrations)
O=C1CC[C@@]2(O)[C@H]3Cc4ccc(O)c5c4[C@@]2(CCN3CC2CC2)[C@H]1O5 [Compound A, naltrexone] | 21 | 32 | suppressed | suppressed | suppressed | TLR4 antagonist |  |  |  |  |  | 
C=C1CC[C@@]2(O)[C@H]3Cc4ccc(O)c5c4[C@@]2(CCN3CC2CC2)[C@H]1O5 [Compound B, nalmefene] |  |  | suppressed | suppressed | suppressed |  | significant (P<0.05) inhibition | significant (P<0.05) inhibition | 64 | 16 | 21 | weak inhibition
COc1ccc2c(c1)[C@@]13CCCC[C@H]1[C@@H](C2)NCC3 [Compound C, 3-methoxymorphinan] |  |  | suppressed | suppressed | suppressed |  |  |  |  |  |  | 
Oc1ccc2c(c1)[C@@]13CCCC[C@H]1[C@@H](C2)NCC3 [Compound D, 3-hydroxymorphinan] |  |  | suppressed | suppressed | suppressed |  |  |  |  |  |  | 
